Measured values taken from patent US9615576B2, “Pesticidal compositions and processes related thereto” (Dow AgroSciences LLC, priority 2011, dated 2017).

Key:
[1] = tested on: Beet Armyworm (BAW) (Spodoptera exigua); assay: Bioassays on Beet Armyworm (BAW), 128-well diet tray assay; type: in vivo; conditions: 168 h, 50 μg/cm^2 test compound on artificial diet, second instar larvae, 25° C., five to seven days, average of eight wells, read-out: BAW Rating (% mortality)
Procedure: (§1) Certain molecules disclosed in this document were tested against BAW and CEW using procedures described in the following examples. In the reporting of the results, the “BAW & CEW Rating Table” was used (See Table Section).
Bioassays on BAW (Spodoptera exigua)
Bioassays on BAW were conducted using a 128-well diet tray assay. one to five second instar BAW larvae were placed in each well (3 mL) of the diet tray that had been previously filled with 1 mL of artificial diet to which 50 μg/cm^2 of the test compound (dissolved in 50 μL of 90:10 acetone-water mixture) had been applied (to each of eight wells) and then allowed to dry. Trays were covered with a clear self-adhesive cover, and held at 25° C., 14:10 light-dark for five to seven days. Percent mortality was recorded for the larvae in each well; activity in the eight wells was then averaged. The results are indicated in the table entitled “Table 3: Assay Results” (See Table Section).

[2] = tested on: Corn Earworm (CEW) (Helicoverpa zea); assay: Bioassays on Corn Earworm (CEW), 128-well diet tray assay; type: in vivo; conditions: 168 h, 50 μg/cm^2 test compound on artificial diet, second instar larvae, 25° C., five to seven days, average of eight wells, read-out: CEW Rating (% mortality)
Procedure: as §1
Bioassays on CEW (Helicoverpa zea)
Bioassays on CEW were conducted using a 128-well diet tray assay. one to five second instar CEW larvae were placed in each well (3 mL) of the diet tray that had been previously filled with 1 mL of artificial diet to which 50 μg/cm^2 of the test compound (dissolved in 50 μL of 90:10 acetone-water mixture) had been applied (to each of eight wells) and then allowed to dry. Trays were covered with a clear self-adhesive cover, and held at 25° C., 14:10 light-dark for five to seven days. Percent mortality was recorded for the larvae in each well; activity in the eight wells was then averaged. The results are indicated in the table entitled “Table 3: Assay Results” (See Table Section).

| Compound | mortality at 50 µg/cm2 [1] [%] | mortality at 50 µg/cm2 [2] [%] |
| --- | --- | --- |
| Cc1cc(/C=C/C(c2cc(Cl)c(F)c(Cl)c2)C(F)(F)F)ccc1C(=O)NCC(=O)NCC(F)(F)F (stereo not shown) [AC69] | 50 to 100 | 50 to 100 |
| COc1cc(/C=C/C(c2cc(Cl)c(F)c(Cl)c2)C(F)(F)F)ccc1C(=O)NCc1ccc(Cl)nc1 (stereo not shown) [AC70] | 0 | 0 |
| COc1cc(/C=C/C(c2cc(Cl)c(F)c(Cl)c2)C(F)(F)F)ccc1C(=O)NC1CSC1 (stereo not shown) [AC71] | 50 to 100 | 50 to 100 |
| CCc1cc(/C=C/C(c2cc(Cl)c(F)c(Cl)c2)C(F)(F)F)ccc1C(=O)NCc1ccc(Cl)nc1 (stereo not shown) [AC72] | 50 to 100 | 50 to 100 |
| O=C(NCc1ccc(C(F)(F)F)nc1)c1ccc(/C=C/C(c2cc(Cl)c(Cl)c(Cl)c2)C(F)(F)F)cc1Br (stereo not shown) [AC75] | 50 to 100 | 50 to 100 |
| CCc1cc(/C=C/C(c2cc(Cl)c(F)c(Cl)c2)C(F)(F)F)ccc1C(=O)NCc1cccnc1Cl (stereo not shown) [AC76] | 50 to 100 | 50 to 100 |
| Cc1cc(/C=C/C(c2cc(Cl)c(F)c(Cl)c2)C(F)(F)F)ccc1C(=O)NCc1cc(Cl)ccn1 (stereo not shown) [AC77] | 50 to 100 | 50 to 100 |
| Cc1cc(/C=C/C(c2cc(Cl)c(Cl)c(Cl)c2)C(F)(F)F)ccc1C(=O)NCC(=O)NCC(F)(F)F (stereo not shown) [AC78] | 50 to 100 | 50 to 100 |
| O=C(CNC(=O)c1ccc(/C=C/C(c2cc(Cl)c(F)c(Cl)c2)C(F)(F)F)cc1Br)NCC(F)(F)F (stereo not shown) [AC79, (E)-2-bromo-4-(3-(3,5-dichloro-4-fluorophenyl)-4,4,4-trifluorobut-1-en-1-yl)-N-(2-oxo-2-((2,2,2-trifluoroethyl)amino)ethyl)benzamide] | 50 to 100 | 50 to 100 |
| CCc1cc(/C=C/C(c2cc(Cl)c(F)c(Cl)c2)C(F)(F)F)ccc1C(=O)NCC(=O)NCC(F)(F)F (stereo not shown) [AC80] | 50 to 100 | 50 to 100 |
| Cc1cc(/C=C/C(c2cc(Cl)cc(Cl)c2)C(F)(F)F)ccc1C(=O)NCC(=O)NC1CS(=O)(=O)C1 (stereo not shown) [AC81] | 50 to 100 | 0 |
| Cc1cc(/C=C/C(c2cc(Cl)cc(Cl)c2)C(F)(F)F)ccc1C(=O)N[C@H]1C[S@@+]([O-])C1 (stereo partly shown) [AC82] | 50 to 100 | 50 to 100 |
| O=C(NC1CS(=O)(=O)C1)c1ccc(/C=C/C(c2cc(Cl)cc(Cl)c2)C(F)(F)F)cc1F (stereo not shown) [AC83, (E)-4-(3-(3,5-dichlorophenyl)-4,4,4-trifluorobut-1-en-1-yl)-N-(1,1-dioxidothietan-3-yl)-2-fluorobenzamide] | 50 to 100 | 50 to 100 |
| O=C(NC1CS(=O)(=O)C1)c1ccc(/C=C/C(c2cc(Cl)c(F)c(Cl)c2)C(F)(F)F)cc1F (stereo not shown) [AC84] | 50 to 100 | 50 to 100 |
| COc1cc(/C=C/C(c2cc(Cl)c(F)c(Cl)c2)C(F)(F)F)ccc1C(=O)NC1CS(=O)(=O)C1 (stereo not shown) [AC85] | 50 to 100 | 50 to 100 |
| CCc1cc(/C=C/C(c2cc(Cl)c(F)c(Cl)c2)C(F)(F)F)ccc1C(=O)NC1CS(=O)(=O)C1 (stereo not shown) [AC86] | 50 to 100 | 50 to 100 |

| Compound | mortality at 50 µg/cm2 [1] [%] | mortality at 50 µg/cm2 [2] [%] |
| --- | --- | --- |
| O=C(NC1C[S+]([O-])C1)c1ccc(/C=C/C(c2cc(Cl)c(F)c(Cl)c2)C(F)(F)F)cc1F (stereo not shown) [AC87] | 50 to 100 | 50 to 100 |
| Cc1cc(/C=C/C(c2cc(Cl)cc(Cl)c2)C(F)(F)F)ccc1C(=O)NCc1nnc(C2CC2)o1 (stereo not shown) [AC89, (E)-N-((5-cyclopropyl-1,3,4-oxadiazol-2-yl)methyl)-4-(3-(3,5-dichlorophenyl)-4,4,4-trifluorobut-1-en-1-yl)-2-methylbenzamide] | 50 to 100 | 50 to 100 |
| FC(F)(F)CNC(=S)CNC(=S)c1ccc(/C=C/C(c2cc(Cl)c(Cl)c(Cl)c2)C(F)(F)F)cc1Br (stereo not shown) [AC90, (E)-2-bromo-N-(2-thioxo-2-((2,2,2-trifluoroethyl)amino)ethyl)-4-(4,4,4-trifluoro-3-(3,4,5-trichlorophenyl)but-1-en-1-yl)benzothioamide] | 50 to 100 | 50 to 100 |
| O=C(CNC(=S)c1ccc(/C=C/C(c2cc(Cl)c(Cl)c(Cl)c2)C(F)(F)F)cc1Br)NCC(F)(F)F (stereo not shown) [AC91, (E)-2-(2-bromo-4-(4,4,4-trifluoro-3-(3,4,5-trichlorophenyl)but-1-en-1-yl)phenylthioamido)-N-(2,2,2-trifluoroethyl)acetamide] | 50 to 100 | 50 to 100 |
| O=C(NCC(=S)NCC(F)(F)F)c1ccc(/C=C/C(c2cc(Cl)c(Cl)c(Cl)c2)C(F)(F)F)cc1Br (stereo not shown) [AC92, (E)-2-bromo-N-(2-thioxo-2-((2,2,2-trifluoroethyl)amino)ethyl)-4-(4,4,4-trifluoro-3-(3,4,5-trichlorophenyl)but-1-en-1-yl)benzamide] | 50 to 100 | 50 to 100 |
| Cc1cc(/C=C\C(c2cc(Cl)cc(Cl)c2)C(F)(F)F)ccc1C(=O)NCC(=O)NC1CC1 (stereo not shown) [AC93] | 50 to 100 | 0 |
| Cc1cc(/C=C\C(c2cc(Cl)cc(Cl)c2)C(F)(F)F)ccc1C(=O)NCc1ccc(Cl)nc1 (stereo not shown) [AC94] | 0 | 0 to 50 |
| O=C(CNC(=O)c1ccc(/C=C\C(c2cc(Cl)c(Cl)c(Cl)c2)C(F)(F)F)cc1Br)NCC(F)(F)F (stereo not shown) [AC95, (Z)-2-bromo-N-(2-oxo-2-((2,2,2-trifluoroethyl)amino)ethyl)-4-(4,4,4-trifluoro-3-(3,4,5-trichlorophenyl)but-1-en-1-yl)benzamide] | 50 to 100 | 50 to 100 |
| CN(C)c1ccc(CNC(=O)c2ccc(/C=C/C(c3cc(Cl)c(Cl)c(Cl)c3)C(F)(F)F)cc2Br)cn1 (stereo not shown) [AC96] | 0 | 0 |
| COc1ccc(CNC(=O)c2ccc(/C=C/C(c3cc(Cl)c(Cl)c(Cl)c3)C(F)(F)F)cc2Br)cn1 (stereo not shown) [AC97] | 0 | 0 |
| O=C(CNC(=O)c1ccc(/C=C/C(c2cc(Cl)c(F)c(Cl)c2)C(F)(F)F)cc1[N+](=O)[O-])NCC(F)(F)F (stereo not shown) [AC98] | 50 to 100 | 50 to 100 |
| O=C(CNC(=O)c1ccc(/C=C/C(c2ccc(F)c(Cl)c2)C(F)(F)F)cc1Br)NCC(F)(F)F (stereo not shown) [AC99] | 50 to 100 | 50 to 100 |
| O=C(c1ccc(/C=C/C(c2cc(Cl)c(Cl)c(Cl)c2)C(F)(F)F)cc1Br)N1CCN(CC(F)(F)F)CC1 (stereo not shown) [AC101] | 0 | 0 |
| O=C(CNC(=O)c1ccc(/C=C/C(c2cc(F)c(Cl)c(F)c2)C(F)(F)F)cc1Br)NCC(F)(F)F (stereo not shown) [AC102] | 0 | 50 to 100 |
| CC(=O)N1CCC(NC(=O)c2ccc(/C=C/C(c3cc(Cl)c(Cl)c(Cl)c3)C(F)(F)F)cc2Br)CC1 (stereo not shown) [AC103, (E)-N-(1-acetylpiperidin-4-yl)-2-bromo-4-(4,4,4-trifluoro-3-(3,4,5-trichlorophenyl)but-1-en-1-yl)benzamide] | 50 to 100 | 50 to 100 |
| O=C(NC1CCN(C(=O)CC(F)(F)F)CC1)c1ccc(/C=C/C(c2cc(Cl)c(Cl)c(Cl)c2)C(F)(F)F)cc1Br (stereo not shown) [AC104, (E)-2-bromo-4-(4,4,4-trifluoro-3-(3,4,5-trichlorophenyl)but-1-en-1-yl)-N-(1-(3,3,3-trifluoropropanoyl)piperidin-4-yl)benzamide] | 50 to 100 | 50 to 100 |
